Laboratory results as given in PMC7891399 (Journal of Clinical Pharmacology, 2020).
Where two headings read alike, the source gives them in different places. Marks after values point to notes of the source that are not given here.

Legend:
[1] = assay type: in vivo, women; details: for AUC(0-t): female, human, plasma; for AUC0–24h Ratio Third Trimester/Postpartum GMR (90%CI) / Ctrough Ratio Third Trimester/Postpartum GMR (90%CI): paired data only
[2] = assay type: in vivo, women
[3] = Combined PANNA and iTAP comparison of pregnancy effect on TFV exposure; assay type: in vivo; details: all groups of women (HIV with r/PI, HIV without r/PI, HBV monoinfection)
[4] = healthy subjects, fed state; ref registration package; cited from earlier work
[5] = women with HBV, TDF monotherapy, paired data only

Which AUC(0-t) ([1]; oral) does the source give for `C[C@H](Cn1cnc2c(N)ncnc21)OCP(=O)(O)O` [TFV, tenofovir] here?
The AUC(0-t) was 1840 ng·h/mL.

What about the AUC(0-t) ([1]; oral, AUC0–24h Postpartum GM (95%CI), women with HIV, all patients (n = 59), postpartum) of the same compound?
The AUC(0-t) was 2840 ng·h/mL.

And the AUC(0-t) ([1]; po)?
Its AUC(0-t) is 1860 ng·h/mL.

And the “Ctrough Postpartum GM (95%CI)” value ([1]; women with HIV on non-r/PI (n = 27), postpartum)?
Its value is 0.056 (0.050–0.064) µg/mL.

What about the “Ctrough Third Trimester GM (95%CI)” value ([1]; women with HIV on non-r/PI (n = 27)) of the same compound?
The value was 0.038 (0.033–0.043) µg/mL.

And the “AUC0–24h Ratio Third Trimester/Postpartum GMR (90%CI)” value ([1]; women with HIV on non-r/PI)?
The value was 0.74 (0.68–0.82).

And the “Ctrough Ratio Third Trimester/Postpartum GMR (90%CI)” value ([1]; women with HIV on non-r/PI)?
The value was 0.68 (0.62–0.75).

And the “Ctrough decrease by pregnancy, on average” value (“Ctrough decrease” below) ([1]; women with HIV on non-r/PI-based regimens)?
The value was 32%.

What about the “AUC0–24h lower during the third trimester compared to 1 month postpartum” value ([1]; women with HIV on non-r/PI-based regimens, intraindividual) of the same compound?
The value was 26%.

And the “Ctrough Postpartum GM (95%CI)” value ([1]; women with HIV on r/PI (n = 32), postpartum)?
Its value is 0.063 (0.053–0.075) µg/mL.

What about the “Ctrough Third Trimester GM (95%CI)” value ([1]; women with HIV on r/PI (n = 32)) of the same compound?
The value was 0.048 (0.043–0.054) ^b , ^c µg/mL.

And the “AUC0–24h Ratio Third Trimester/Postpartum GMR (90%CI)” value ([1]; women with HIV on r/PI)?
Its value is 0.76 (0.69–0.83).

And the “Ctrough Ratio Third Trimester/Postpartum GMR (90%CI)” value ([1]; women with HIV on r/PI)?
The value was 0.81 (0.69–0.94).

What about the “Ctrough decrease” value ([1]; women with HIV on r/PI-based regimens) of the same compound?
Its value is 19%.

And the “Ctrough Postpartum GM (95%CI)” value ([1]; women with HIV, all patients (n = 59), postpartum)?
The value was 0.059 (0.053–0.066) µg/mL.

And the “Ctrough Third Trimester GM (95%CI)” value ([1]; women with HIV, all patients (n = 59))?
Its value is 0.043 (0.039–0.047) µg/mL.

And the “AUC0–24h Ratio Third Trimester/Postpartum GMR (90%CI)” value ([1]; women with HIV, all patients)?
The value was 0.75 (0.70–0.80).

And the “Ctrough Ratio Third Trimester/Postpartum GMR (90%CI)” value ([1]; women with HIV, all patients)?
The value was 0.74 (0.67–0.81).

And the AUC(0-t) ([2]; female, human, plasma, po)?
Its AUC(0-t) is 2350 ng·h/mL.

And the “Ctrough decrease” value ([2]; women with HBV)?
The value was 31%.

And the “AUC0–24h lower during the third trimester compared to 1 month postpartum” value ([2]; women with HBV receiving TDF monotherapy, intraindividual)?
Its value is 21%.

And the “Ctrough Postpartum GM (95%CI)” value ([2]; women with HBV, TDF monotherapy (n = 137), 1 month postpartum)?
Its value is 0.058 (0.055–0.061) µg/mL.

What about the “Ctrough Third Trimester GM (95%CI)” value ([2]; women with HBV, TDF monotherapy (n = 137), third trimester (32 weeks)) of the same compound?
Its value is 0.039 (0.038–0.042) µg/mL.

What about the “AUC0–24h Ratio Third Trimester/Postpartum GMR (90%CI)” value [2, 5] of the same compound?
The value was 0.79 (0.78–0.80).

What about the “Ctrough Ratio Third Trimester/Postpartum GMR (90%CI)” value [2, 5] of the same compound?
Its value is 0.69 (0.68–0.71).

And the “TFV exposure decrease during the third trimester of pregnancy” value [3]?
The value was “approximately 25%”.

What about the “mean AUC0–24h” value [4] of the same compound?
The value was 2460 ± 830 ng·h/mL.
